Reference: ChEMBL document CHEMBL5625242, “Discovery of brain permeable 2-Azabicyclo[2.2.2]octane sulfonamides as a novel class of presenilin-1 selective γ-secretase inhibitors” (Eur J Med Chem, 2023)
Converted amounts (≈) assume the structure as drawn.

Key:
[1] = Inhibition of human PSEN1/APH1A expressed in MEF cells with Psen1/2 double knockout/Aph1ABC triple knockout by ELISA; assay type: cell-based
[2] = Inhibition of human PSEN1/APH1B expressed in MEF cells with Psen1/2 double knockout/Aph1ABC triple knockout by ELISA; assay type: cell-based
[3] = Inhibition of human PSEN2/APH1A expressed in MEF cells with Psen1/2 double knockout/Aph1ABC triple knockout by ELISA; assay type: cell-based
[4] = Inhibition of human PSEN2/APH1B expressed in MEF cells with Psen1/2 double knockout/Aph1ABC triple knockout by ELISA; assay type: cell-based
[5] = Metabolic stability in human liver microsomes assessed as intrinsic clearance; assay type: ADME, Microsome; conditions: for microsomal CLint: liver microsomes, read-out: CLH
[6] = Metabolic stability in mouse liver microsomes assessed as intrinsic clearance; assay type: ADME, Microsome; conditions: for microsomal CLint: liver microsomes, read-out: CLH
MEF = assay: Inhibition of human PSEN1/APH1B expressed in MEF cells with Psen1/2 double knockout/Aph1ABC triple knockout at 10 uM by ELISA relative to control; assay type: cell-based
Cytochrome P450 2D6 = Cytochrome P450 2D6 (Homo sapiens, UniProt P10635); assay: Inhibition of human CYP2D6 using dextrometorphan as substrate by fluorescence based assay; assay type: ADME
Cytochrome P450 3A4 = Cytochrome P450 3A4 (Homo sapiens, UniProt P08684); assay: Inhibition of human CYP3A4 using midazolam as substrate by fluorescence based assay; assay type: ADME
Cytochrome P450 2C8 = molecular target: T1, Cytochrome P450 2C8 (Homo sapiens, UniProt P10632); assay: Inhibition of human CYP2C8 using amodiaquine as substrate by fluorescence based assay; assay type: ADME
T1 sequence (P10632 whole entry): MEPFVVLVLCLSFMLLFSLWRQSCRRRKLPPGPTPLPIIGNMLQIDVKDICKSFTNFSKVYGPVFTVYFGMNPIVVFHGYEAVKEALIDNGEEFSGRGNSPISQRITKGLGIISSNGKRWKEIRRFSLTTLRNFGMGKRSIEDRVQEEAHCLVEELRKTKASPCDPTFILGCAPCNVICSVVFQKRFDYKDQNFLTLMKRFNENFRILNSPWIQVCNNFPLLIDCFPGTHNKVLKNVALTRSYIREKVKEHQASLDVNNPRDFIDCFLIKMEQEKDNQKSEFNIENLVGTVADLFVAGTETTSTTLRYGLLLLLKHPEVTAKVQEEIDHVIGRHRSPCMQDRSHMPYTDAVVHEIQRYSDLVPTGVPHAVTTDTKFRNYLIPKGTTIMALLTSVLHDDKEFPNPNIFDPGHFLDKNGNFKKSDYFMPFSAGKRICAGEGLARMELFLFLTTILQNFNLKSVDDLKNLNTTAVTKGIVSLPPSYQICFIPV

Cytochrome P450 2C9 = Cytochrome P450 2C9 (Homo sapiens, UniProt P11712); assay: Inhibition of human CYP2C9 using tolbutamide as substrate by fluorescence based assay; assay type: ADME
Cytochrome P450 2C19 = Cytochrome P450 2C19 (Homo sapiens, UniProt P33261); assay: Inhibition of human CYP2C19 using S-mephenytoin as substrate by fluorescence based assay; assay type: ADME
Cytochrome P450 1A2 = molecular target: T2, Cytochrome P450 1A2 (Homo sapiens, UniProt P05177); assay: Inhibition of human CYP1A2 using phenacetin as substrate by fluorescence based assay; assay type: ADME
T2 sequence (P05177 whole entry): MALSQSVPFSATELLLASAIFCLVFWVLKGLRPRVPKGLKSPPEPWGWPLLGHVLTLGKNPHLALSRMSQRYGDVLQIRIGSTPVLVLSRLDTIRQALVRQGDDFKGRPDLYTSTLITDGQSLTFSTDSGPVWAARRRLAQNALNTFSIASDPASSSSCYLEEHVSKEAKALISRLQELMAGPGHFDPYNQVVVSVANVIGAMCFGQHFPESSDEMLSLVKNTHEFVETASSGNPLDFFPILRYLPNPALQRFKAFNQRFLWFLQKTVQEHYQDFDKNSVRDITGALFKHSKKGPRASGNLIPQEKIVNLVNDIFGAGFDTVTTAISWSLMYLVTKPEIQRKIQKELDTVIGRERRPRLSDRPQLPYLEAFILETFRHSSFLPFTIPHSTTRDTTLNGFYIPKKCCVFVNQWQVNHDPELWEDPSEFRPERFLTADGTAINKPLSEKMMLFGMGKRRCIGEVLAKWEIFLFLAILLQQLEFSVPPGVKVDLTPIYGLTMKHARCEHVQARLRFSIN

[7] = Protein binding in mouse plasma assessed as free fraction at 5 uM incubated for 4.5 hrs by HPLC analysis; assay type: ADME, cell-free
[8] = Free fraction in rat brain homogenate at 5 uM incubated for 5 hrs by HPLC-MS/MS analysis; assay type: ADME, tissue-based
[9] = Kinetic solubility of compound at pH 2; assay type: physicochemical; conditions: buffer, read-out: Kinetic_solubility
[10] = Kinetic solubility of compound at pH 4; assay type: physicochemical; conditions: buffer, read-out: Kinetic_solubility
[11] = Kinetic solubility of compound at pH 7.4; assay type: physicochemical; conditions: buffer, read-out: Kinetic_solubility
human MDR1 [12] = assay: Apparent permeability across apical to basal side in MDCK cells transfected with human MDR1 at 5 uM by LC-MS/MS analysis; assay type: ADME, cell-based, Canis lupus familiaris; conditions: dog
human MDR1 [13] = assay: Efflux ratio of apparent permeability basal to apical side over apical to basal side in MDCK cells transfected with human MDR1 at 5 uM by LC-MS/MS analysis; assay type: ADME, cell-based, Canis lupus familiaris; conditions: dog
[14] = molecular target: Voltage-gated inwardly rectifying potassium channel KCNH2 (Homo sapiens, UniProt Q12809); assay: Inhibition of hERG; assay type: toxicity
calcium channel = assay: Inhibition of rat calcium channel; assay type: toxicity
sodium channel = assay: Inhibition of rat sodium channel; assay type: toxicity
[15] = Drug concentration in Swiss mouse plasma at 2.5 mg/kg, iv measured at 5 mins post-dose; assay type: ADME, organism-based
[16] = Drug concentration in Swiss mouse brain at 2.5 mg/kg, iv measured at 5 mins post-dose; assay type: ADME, organism-based; conditions: read-out: Ct
[17] = Ratio of drug concentration in brain to plasma of Swiss mouse at 2.5 mg/kg, iv measured at 5 mins post-dose; assay type: ADME, organism-based; conditions: read-out: BPR
[18] = Unbound drug concentration in Swiss mouse plasma at 2.5 mg/kg, iv measured at 5 mins post-dose; assay type: ADME, organism-based; conditions: in vivo
[19] = Ratio of unbound drug concentration in brain to plasma in Swiss mouse at 2.5 mg/kg, iv measured at 5 mins post-dose; assay type: ADME, organism-based; conditions: read-out: K(p,uu,brain)
[20] = Half life in CD-1 mouse at 30 mg/kg, po measured at 4 hrs post-dose; assay type: ADME, organism-based; conditions: in vivo
[21] = Tmax in CD-1 mouse at 30 mg/kg, po measured at 4 hrs post-dose; assay type: ADME, organism-based; conditions: in vivo
[22] = AUClast in CD-1 mouse at 30 mg/kg, po measured at 4 hrs post-dose; assay type: ADME, organism-based; conditions: in vivo
[23] = AUC (0 to infinity) in CD-1 mouse at 30 mg/kg, po measured at 4 hrs post-dose; assay type: ADME, organism-based; conditions: in vivo
[24] = Volume of distribution at steady state in CD-1 mouse at 30 mg/kg, po measured at 4 hrs post-dose; assay type: ADME, organism-based; conditions: in vivo
[25] = MRT in CD-1 mouse at 30 mg/kg, po measured at 4 hrs post-dose; assay type: ADME, organism-based; conditions: in vivo
[26] = Protein binding in human plasma assessed as free fraction at 5 uM incubated for 4.5 hrs by HPLC analysis; assay type: ADME, cell-free

Cytochrome P450 2C9, sequence (P11712 whole entry): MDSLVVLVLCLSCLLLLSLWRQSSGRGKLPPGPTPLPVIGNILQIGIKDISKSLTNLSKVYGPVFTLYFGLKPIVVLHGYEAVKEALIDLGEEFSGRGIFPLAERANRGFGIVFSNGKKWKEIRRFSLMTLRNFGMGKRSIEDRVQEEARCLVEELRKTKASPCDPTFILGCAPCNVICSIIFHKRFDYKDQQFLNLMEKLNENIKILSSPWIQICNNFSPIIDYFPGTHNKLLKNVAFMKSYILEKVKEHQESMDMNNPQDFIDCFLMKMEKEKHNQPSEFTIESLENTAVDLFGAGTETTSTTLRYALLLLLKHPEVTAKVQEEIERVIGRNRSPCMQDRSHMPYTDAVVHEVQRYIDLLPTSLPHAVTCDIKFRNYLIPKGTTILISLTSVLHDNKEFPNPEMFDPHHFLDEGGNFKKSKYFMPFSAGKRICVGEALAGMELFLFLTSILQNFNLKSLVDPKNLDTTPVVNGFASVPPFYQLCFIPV
Cytochrome P450 2D6, sequence (P10635 whole entry): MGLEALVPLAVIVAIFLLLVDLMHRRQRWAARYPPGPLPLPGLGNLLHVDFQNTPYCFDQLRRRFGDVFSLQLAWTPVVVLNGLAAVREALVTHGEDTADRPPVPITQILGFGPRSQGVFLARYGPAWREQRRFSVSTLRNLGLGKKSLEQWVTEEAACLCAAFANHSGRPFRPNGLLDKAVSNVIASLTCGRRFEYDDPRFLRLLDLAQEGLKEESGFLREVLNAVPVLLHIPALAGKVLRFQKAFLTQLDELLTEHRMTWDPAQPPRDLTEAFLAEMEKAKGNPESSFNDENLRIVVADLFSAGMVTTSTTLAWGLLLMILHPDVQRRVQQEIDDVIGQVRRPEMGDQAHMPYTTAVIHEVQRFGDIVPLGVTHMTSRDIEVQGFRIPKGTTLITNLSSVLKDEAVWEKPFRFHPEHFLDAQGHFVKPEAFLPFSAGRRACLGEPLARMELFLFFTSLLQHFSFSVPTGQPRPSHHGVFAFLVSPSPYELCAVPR
Cytochrome P450 2C19, sequence (P33261 whole entry): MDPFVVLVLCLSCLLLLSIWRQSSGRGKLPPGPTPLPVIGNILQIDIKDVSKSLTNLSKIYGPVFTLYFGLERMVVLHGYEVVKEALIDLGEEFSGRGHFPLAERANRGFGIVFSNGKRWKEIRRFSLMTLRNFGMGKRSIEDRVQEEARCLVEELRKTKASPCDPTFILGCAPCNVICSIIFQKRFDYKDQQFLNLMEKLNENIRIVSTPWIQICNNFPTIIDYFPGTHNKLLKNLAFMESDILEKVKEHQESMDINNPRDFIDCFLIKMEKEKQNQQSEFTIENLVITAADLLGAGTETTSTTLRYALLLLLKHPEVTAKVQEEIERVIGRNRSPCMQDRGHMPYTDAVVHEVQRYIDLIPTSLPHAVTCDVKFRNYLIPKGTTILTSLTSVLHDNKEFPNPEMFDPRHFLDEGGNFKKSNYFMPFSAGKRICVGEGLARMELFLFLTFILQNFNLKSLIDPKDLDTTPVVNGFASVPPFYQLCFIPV
Voltage-gated inwardly rectifying potassium channel KCNH2, sequence (Q12809 whole entry): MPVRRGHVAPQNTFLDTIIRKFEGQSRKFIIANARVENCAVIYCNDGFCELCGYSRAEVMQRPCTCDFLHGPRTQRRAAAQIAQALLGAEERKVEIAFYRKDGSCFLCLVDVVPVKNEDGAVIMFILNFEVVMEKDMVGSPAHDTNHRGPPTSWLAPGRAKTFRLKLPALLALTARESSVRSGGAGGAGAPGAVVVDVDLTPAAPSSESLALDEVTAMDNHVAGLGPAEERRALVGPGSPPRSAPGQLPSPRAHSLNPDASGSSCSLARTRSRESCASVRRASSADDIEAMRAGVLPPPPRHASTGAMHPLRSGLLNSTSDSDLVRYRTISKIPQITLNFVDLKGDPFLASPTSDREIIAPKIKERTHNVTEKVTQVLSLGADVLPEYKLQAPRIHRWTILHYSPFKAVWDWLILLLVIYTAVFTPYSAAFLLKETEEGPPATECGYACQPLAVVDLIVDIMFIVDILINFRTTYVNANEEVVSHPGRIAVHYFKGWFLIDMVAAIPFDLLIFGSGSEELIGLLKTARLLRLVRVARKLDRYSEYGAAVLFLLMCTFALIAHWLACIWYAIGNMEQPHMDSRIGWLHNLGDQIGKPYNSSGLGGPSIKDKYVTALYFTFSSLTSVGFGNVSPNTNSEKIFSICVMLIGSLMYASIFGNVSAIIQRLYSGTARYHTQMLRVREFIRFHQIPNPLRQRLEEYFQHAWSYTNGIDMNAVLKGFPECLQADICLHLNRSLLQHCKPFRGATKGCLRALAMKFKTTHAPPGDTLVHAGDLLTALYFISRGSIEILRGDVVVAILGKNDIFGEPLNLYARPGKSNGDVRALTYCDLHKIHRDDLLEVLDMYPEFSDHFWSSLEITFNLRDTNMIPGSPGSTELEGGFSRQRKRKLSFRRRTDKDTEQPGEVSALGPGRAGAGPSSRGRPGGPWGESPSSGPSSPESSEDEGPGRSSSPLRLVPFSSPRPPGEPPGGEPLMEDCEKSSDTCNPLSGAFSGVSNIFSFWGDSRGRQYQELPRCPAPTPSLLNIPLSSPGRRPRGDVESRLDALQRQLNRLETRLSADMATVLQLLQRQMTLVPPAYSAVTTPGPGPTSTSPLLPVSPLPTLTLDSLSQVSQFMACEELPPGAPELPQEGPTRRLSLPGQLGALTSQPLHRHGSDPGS
Cytochrome P450 3A4, sequence (P08684 whole entry): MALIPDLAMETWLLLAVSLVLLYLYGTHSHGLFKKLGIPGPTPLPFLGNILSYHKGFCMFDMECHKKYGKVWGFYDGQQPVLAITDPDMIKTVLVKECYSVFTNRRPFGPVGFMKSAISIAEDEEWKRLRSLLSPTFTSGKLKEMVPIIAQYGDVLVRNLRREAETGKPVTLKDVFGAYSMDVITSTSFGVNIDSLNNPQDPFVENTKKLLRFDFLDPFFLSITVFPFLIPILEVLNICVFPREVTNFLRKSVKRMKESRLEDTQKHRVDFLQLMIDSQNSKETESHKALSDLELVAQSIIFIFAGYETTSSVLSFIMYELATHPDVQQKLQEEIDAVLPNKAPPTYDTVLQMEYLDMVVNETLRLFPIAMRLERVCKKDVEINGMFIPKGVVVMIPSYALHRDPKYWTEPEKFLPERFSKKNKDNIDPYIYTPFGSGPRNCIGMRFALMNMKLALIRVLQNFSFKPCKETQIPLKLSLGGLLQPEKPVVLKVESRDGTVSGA

O=S(=O)(c1ccc(Cl)cc1)N1[C@H]2CC[C@@H]([C@H]1c1ccc(C(F)(F)F)cc1)[C@@H](O)C2 (racemic)
IC50 [1]: 41.7 nM
IC50 [2]: 7.2 nM
IC50 [3]: 2820 nM
IC50 [4]: 2450 nM
microsomal CLint [5]: > 347 µL/min/mg
microsomal CLint [6]: > 347 µL/min/mg

O=C1C[C@@H]2CC[C@H]1[C@H](c1cc(F)ccc1F)N2S(=O)(=O)c1ccc(Cl)cc1
inhibition (MEF): 45%

O=S(=O)(c1ccc(Cl)cc1)N1[C@H]2CC[C@@H]([C@H]1c1ccc(C(F)(F)F)cc1)[C@@H](O)C2
IC50 [1]: 19 nM
IC50 [2]: 5.5 nM
IC50 [3]: 1950 nM
IC50 [4]: 2140 nM
IC50 (Cytochrome P450 2D6): > 10 µM
IC50 (Cytochrome P450 3A4): 3 µM
IC50 (Cytochrome P450 2C8): > 10 µM
IC50 (Cytochrome P450 2C9): > 10 µM
IC50 (Cytochrome P450 2C19): > 10 µM
IC50 (Cytochrome P450 1A2): > 10 µM
fraction unbound at 4.5 h, 5 µM [7]: 0.00309
fraction unbound at 5 h, 5 µM [8]: 0.00115
solubility kinetic [9]: 13 µM (≈ 5.8 µg/mL)
solubility kinetic [10]: 12 µM (≈ 5.35 µg/mL)
solubility kinetic [11]: 18 µM (≈ 8.03 µg/mL)
Papp A→B at 5 µM (human MDR1 [12]): 6.3 ×10⁻⁶ cm/s
efflux ratio at 5 µM (human MDR1 [13]): 1.95
IC50 [14]: > 10 µM
IC50 (calcium channel): > 10 µM
IC50 (sodium channel): > 10 µM
concentration at 5 min [15]: 680 ng/mL
concentration at 5 min [16]: 3620 ng/g
Kp at 5 min [17]: 5.4
Cp(f) [18]: 2.1 ng/mL
Kp uu at 5 min [19]: 1.97
half-life [20]: 28.9 min
Tmax [21]: 2 h
AUC(0-t) at 4 h [22]: 163 ng·h/mL
AUC [23]: 174 ng·h/mL
Vdss [24]: 3.43 L/kg
MRT [25]: 27.2 min

N#Cc1ccc([C@@H]2[C@@H]3CC[C@@H](C[C@@H]3O)N2S(=O)(=O)c2ccc(Cl)cc2)cn1
IC50 [1]: 72 nM
IC50 [2]: 12.9 nM
IC50 [3]: 1230 nM
IC50 [4]: 776 nM
IC50 (Cytochrome P450 2D6): > 10 µM
CLH ([5]; microsomes): 78.4 µL/min/mg
CLH ([6]; microsomes): 110 µL/min/mg
IC50 (Cytochrome P450 3A4): > 10 µM
IC50 (Cytochrome P450 2C8): > 10 µM
IC50 (Cytochrome P450 2C9): > 10 µM
IC50 (Cytochrome P450 2C19): > 10 µM
IC50 (Cytochrome P450 1A2): > 10 µM
fraction unbound at 4.5 h, 5 µM [26]: 0.156
fraction unbound at 4.5 h, 5 µM [7]: 0.0869
fraction unbound at 5 h, 5 µM [8]: 0.119
solubility kinetic [9]: 13 µM (≈ 5.25 µg/mL)
solubility kinetic [10]: 13 µM (≈ 5.25 µg/mL)
solubility kinetic [11]: 7 µM (≈ 2.83 µg/mL)
Papp A→B at 5 µM (human MDR1 [12]): 2.5 ×10⁻⁶ cm/s
efflux ratio at 5 µM (human MDR1 [13]): 32.3
IC50 [14]: > 10 µM
IC50 (calcium channel): > 10 µM
IC50 (sodium channel): > 10 µM
concentration at 5 min [15]: 731 ng/mL
concentration at 5 min [16]: 363 ng/g
Kp at 5 min [17]: 0.5
Cp(f) [18]: 63.5 ng/mL
Kp uu at 5 min [19]: 0.68

N#Cc1ccc([C@@H]2[C@@H]3CC[C@@H](C[C@@H]3O)N2S(=O)(=O)c2ccc(Cl)cc2)cn1 (racemic)
IC50 [1]: 67 nM
IC50 [2]: 12 nM
IC50 [3]: 741 nM
IC50 [4]: 2180 nM
microsomal CLint [5]: 111 µL/min/mg
microsomal CLint [6]: 118 µL/min/mg
